Reference: ChEMBL document CHEMBL1201862, “PubChem BioAssay data set” (2004)
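Assay format: 96-well plates, 48-hour exposure. GI50 = concentration required for 50% inhibition of growth.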 Active and inactive are the calls of the source. Cut-off read from the data, not from the text of the source: active = GI50 up to about 1.1 µM and inactive = higher.

Legend:
Assay in all cases: DTP human tumour cell line panel, 48 h
[1] = tested on: 786-0
[2] = tested on: A549
[3] = tested on: ACHN
[4] = tested on: CAKI-1
[5] = tested on: CCRF-CEM
[6] = tested on: COLO 205
[7] = tested on: HOP-92
[8] = tested on: KM12
[9] = tested on: M14
[10] = tested on: MOLT-4
[11] = tested on: NCI-H226
[12] = tested on: OVCAR-3
[13] = tested on: OVCAR-4
[14] = tested on: OVCAR-5
[15] = tested on: SK-MEL-28
[16] = tested on: SNB-19
[17] = tested on: SW-620
[18] = tested on: T47D
[19] = tested on: TK-10

Measured: GI50

O=C(O)C(O)C(O)C(O)C(O)CO.[Ba+2] (centres undefined)
inactive: [1] > 100 µM | [2] > 100 µM | [3] > 100 µM | [4] > 100 µM | [5] > 100 µM | [6] > 100 µM | [7] > 100 µM | [8] > 100 µM | [9] > 100 µM | [10] > 100 µM | [11] > 100 µM | [12] > 100 µM | [13] > 100 µM | [14] > 100 µM | [15] > 100 µM | [16] > 100 µM | [17] > 100 µM | [18] > 100 µM | [19] > 100 µM

CN(NC(=O)/C(=C/c1ccc(O)cc1)NC(=O)c1ccccc1)c1ccnc2cc(Cl)ccc12
inactive: [1] 15.9 µM | [2] 19.6 µM | [3] 18.3 µM | [4] 19.3 µM | [5] 17.3 µM | [6] 17.5 µM | [7] 17.3 µM | [8] 17.8 µM | [9] 19 µM | [10] 16.7 µM | [11] 12.7 µM | [12] 16.7 µM | [13] 17 µM | [14] 22.5 µM | [15] 19.9 µM | [16] 17.2 µM | [17] 20.8 µM | [18] 20.5 µM | [19] 15.5 µM

CC(C)Oc1c(C2(c3ccccc3O)SCCCS2)c(=O)c1=O
inactive: [1] > 100 µM | [2] > 100 µM | [3] > 100 µM | [4] > 100 µM | [5] 20.5 µM | [6] > 100 µM | [7] 19.7 µM | [8] 51.5 µM | [9] > 100 µM | [10] 57.5 µM | [11] 63.5 µM | [12] 79.3 µM | [13] > 100 µM | [14] 38.7 µM | [15] > 100 µM | [16] 73.3 µM | [17] > 100 µM | [18] 38.9 µM | [19] > 100 µM

C=C1CC(c2ccc(OCCCN3C(=O)c4ccccc4C3=O)cc2)OC1=O (centres undefined)
inactive: [1] 1.95 µM | [2] 16 µM | [3] 4.19 µM | [4] 2.37 µM | [5] 1.64 µM | [6] 1.91 µM | [7] 1.36 µM | [8] 3.83 µM | [9] 2.55 µM | [10] 1.52 µM | [11] 1.46 µM | [12] 1.86 µM | [13] 2.45 µM | [14] 11.4 µM | [15] 1.81 µM | [16] 7.38 µM | [17] 1.48 µM | [18] 2.92 µM | [19] 4.94 µM

Cn1ccnc1Sc1ccc(/C=N\NC(=O)c2cccc(F)c2)cc1[N+](=O)[O-]
inactive: [1] 31.9 µM | [2] 69.3 µM | [3] > 100 µM | [4] > 100 µM | [5] > 100 µM | [6] > 100 µM | [7] 22.7 µM | [8] > 100 µM | [9] > 100 µM | [10] > 100 µM | [11] > 100 µM | [12] 50 µM | [13] 25.3 µM | [14] > 100 µM | [15] 79.4 µM | [16] 27.8 µM | [17] > 100 µM | [18] 36.1 µM | [19] > 100 µM

COc1ccc(-c2[nH]c3c4c(nc5c(c24)C(=O)CC(C)(C)C5)CC(C)(C)C3)cc1
inactive: [1] 32.2 µM | [2] 62.4 µM | [3] 95.5 µM | [4] 70.5 µM | [5] 11.4 µM | [6] 63.8 µM | [7] 39.6 µM | [8] 40.4 µM | [9] > 100 µM | [10] 7.03 µM | [11] 68.7 µM | [12] 47.3 µM | [13] 68.5 µM | [14] > 100 µM | [15] > 100 µM | [16] > 100 µM | [17] > 100 µM | [18] 44.5 µM | [19] > 100 µM
